Measured values taken from ChEMBL document CHEMBL1201862, “PubChem BioAssay data set” (2004).
Blank lines part the entries; values can stand above or below the compound they belong to. The source made the active and inactive calls. Unless noted, no cut-off for these calls is given here.

Tests used:
[1] = biological target: Sphingosine 1-phosphate receptor 4 (Homo sapiens, UniProt O95977); experiment: Late-stage fluorescence dose response cell-based assay to identify agonists of the Sphingosine 1-Phosphate Receptor 4 (S1P4): purchased compounds EC50. [Related pubchem assays (depositor defined):AID1509, AID1523, AID1563, AID1686, AID1701, AID1801]; format: functional
Chain of Sphingosine 1-phosphate receptor 4 (O95977 whole entry): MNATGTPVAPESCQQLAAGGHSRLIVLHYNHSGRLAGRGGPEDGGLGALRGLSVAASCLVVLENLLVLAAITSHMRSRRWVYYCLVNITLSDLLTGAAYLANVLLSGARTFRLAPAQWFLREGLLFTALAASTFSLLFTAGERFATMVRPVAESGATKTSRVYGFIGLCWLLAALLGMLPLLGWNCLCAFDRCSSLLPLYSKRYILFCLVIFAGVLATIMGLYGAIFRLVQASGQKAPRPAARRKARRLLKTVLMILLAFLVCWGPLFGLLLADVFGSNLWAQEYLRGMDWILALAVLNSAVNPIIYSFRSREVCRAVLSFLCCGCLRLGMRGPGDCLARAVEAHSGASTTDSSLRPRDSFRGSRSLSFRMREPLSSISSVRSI

[2] = biological target: T1, Kappa-type opioid receptor (Homo sapiens, UniProt P41145); experiment: SAR analysis of Antagonists of the Kappa Opioid Receptor (KOR) using an Image-Based Assay - Set 2. [Related pubchem assays (depositor defined):AID1777, AID1785, AID1786, AID1966, AID2133, AID2136, AID2284, AID2285, AID2348]; format: functional
T1 sequence (P41145 whole entry): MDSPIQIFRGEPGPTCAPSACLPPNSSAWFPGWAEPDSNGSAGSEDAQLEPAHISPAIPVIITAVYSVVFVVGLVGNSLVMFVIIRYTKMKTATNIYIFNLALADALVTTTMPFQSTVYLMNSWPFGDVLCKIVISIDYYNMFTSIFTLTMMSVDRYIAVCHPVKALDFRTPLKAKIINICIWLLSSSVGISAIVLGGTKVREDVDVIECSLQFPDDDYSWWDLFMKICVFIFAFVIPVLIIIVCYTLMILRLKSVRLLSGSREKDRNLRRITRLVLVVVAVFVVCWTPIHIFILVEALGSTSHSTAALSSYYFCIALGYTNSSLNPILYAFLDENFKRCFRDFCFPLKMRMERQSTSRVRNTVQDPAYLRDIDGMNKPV

[3] = biological target: Delta-type opioid receptor (Homo sapiens, UniProt P41143); experiment: SAR Analysis of Antagonists of the DOR Receptor using an Image-Based Assay - Set 2. [Related pubchem assays (depositor defined):AID1777, AID1785, AID1786, AID1966, AID2133, AID2136, AID2284, AID2285, AID2357]; format: functional
Chain of Delta-type opioid receptor (P41143 whole entry): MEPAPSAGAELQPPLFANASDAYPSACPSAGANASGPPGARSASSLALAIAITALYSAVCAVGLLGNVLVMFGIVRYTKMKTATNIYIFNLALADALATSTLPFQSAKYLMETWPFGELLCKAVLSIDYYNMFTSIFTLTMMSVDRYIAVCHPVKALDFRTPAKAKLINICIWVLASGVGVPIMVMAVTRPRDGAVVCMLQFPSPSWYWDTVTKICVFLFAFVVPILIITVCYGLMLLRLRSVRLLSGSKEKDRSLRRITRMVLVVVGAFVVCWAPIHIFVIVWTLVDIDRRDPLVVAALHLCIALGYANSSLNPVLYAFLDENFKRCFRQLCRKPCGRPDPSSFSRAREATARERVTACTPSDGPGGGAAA

[4] = biological target: T1, Kappa-type opioid receptor; experiment: SAR analysis of small molecule agonists of the kappa opioid receptor via a luminescent beta-arrestin assay - Set 2. [Related pubchem assays (depositor defined):AID1777, AID1785, AID1786, AID1966, AID2133, AID2136, AID2284, AID449737]; format: functional
[5] = biological target: T2, Peroxisome proliferator-activated receptor gamma (Homo sapiens, UniProt P37231); experiment: PPARg transcriptional activation, reporter cells – cell-based, luminescence, assay provider, dose response (AID 504447); format: functional
T2 sequence (P37231 whole entry): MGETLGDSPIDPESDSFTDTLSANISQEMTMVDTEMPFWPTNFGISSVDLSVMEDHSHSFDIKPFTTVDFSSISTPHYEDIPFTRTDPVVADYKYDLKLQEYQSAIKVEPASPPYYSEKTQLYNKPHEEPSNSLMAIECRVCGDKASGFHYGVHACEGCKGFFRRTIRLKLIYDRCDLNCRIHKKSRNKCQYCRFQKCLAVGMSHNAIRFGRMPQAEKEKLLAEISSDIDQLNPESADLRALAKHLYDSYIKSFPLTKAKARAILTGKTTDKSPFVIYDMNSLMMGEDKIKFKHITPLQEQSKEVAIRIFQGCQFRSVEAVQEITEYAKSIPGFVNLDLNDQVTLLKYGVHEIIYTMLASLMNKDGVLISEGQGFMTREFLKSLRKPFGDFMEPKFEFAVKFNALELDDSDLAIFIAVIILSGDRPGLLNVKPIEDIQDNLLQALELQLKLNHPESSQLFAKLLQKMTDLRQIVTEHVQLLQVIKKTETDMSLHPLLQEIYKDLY

[6] = biological target: T2, Peroxisome proliferator-activated receptor gamma; experiment: competitive ligand displacement at PPARg – biochemical, TR-FRET, LanthaScreen, PPARg partial agonist project, dose response (AID 504446)
[7] = biological target: Peroxisome proliferator-activated receptor alpha (Homo sapiens, UniProt Q07869); experiment: Late stage assay provider counterscreen for partial agonists of the peroxisome proliferator-activated receptor gamma (PPARg): Luminescence-based cell-based dose response assay for partial agonists of the peroxisome proliferator-activated receptor alpha (PPARA). [Related pubchem assays (depositor defined):AID1051, AID1300, AID1319, AID1679, AID1808, AID504446, AID504447, AID504452, AID504453, AID631]; format: functional
Chain of Peroxisome proliferator-activated receptor alpha (Q07869 whole entry): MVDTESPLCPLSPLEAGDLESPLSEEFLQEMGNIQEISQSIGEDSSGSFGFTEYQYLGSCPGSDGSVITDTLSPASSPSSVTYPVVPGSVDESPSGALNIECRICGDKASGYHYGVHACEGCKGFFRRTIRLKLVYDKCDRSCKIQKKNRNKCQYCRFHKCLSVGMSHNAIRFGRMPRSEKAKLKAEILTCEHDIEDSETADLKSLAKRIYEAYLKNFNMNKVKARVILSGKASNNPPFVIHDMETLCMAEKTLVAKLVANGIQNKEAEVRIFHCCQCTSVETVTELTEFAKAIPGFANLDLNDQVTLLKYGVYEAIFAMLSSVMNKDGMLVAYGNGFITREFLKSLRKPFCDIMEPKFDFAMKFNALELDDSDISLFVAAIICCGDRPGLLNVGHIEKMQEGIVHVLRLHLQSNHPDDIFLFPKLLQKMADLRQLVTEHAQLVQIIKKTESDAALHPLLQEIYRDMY

EC50 [1]: > 50000 nM (inactive)
SMILES: Cc1ccc(OCC(=O)NC(C)c2ccc(Cl)cc2Cl)c([N+](=O)[O-])n1 (configuration not stated)

IC50 [2]: > 32000 nM (inactive) | IC50 [3]: > 32000 nM (inactive) | EC50 [4]: 151 nM (active)
SMILES: CC[C@](C)(C(=O)NC1CCCCC1)N(Cc1ccco1)C(=O)c1ccccn1

EC50 [5]: 3000 nM (active) | IC50 [6]: 1900 nM (active) | EC50 [7]: 243 nM (active)
SMILES: O=C(O)CCN1C(=O)/C(=C/c2cccc(OCc3ccc(F)cc3)c2)SC1=S
